Paper PMC11912270, “Synthesis and SAR Studies of Acyl-Thiourea Platinum(II) Complexes Yield Analogs with Dual-Stage Antiplasmodium Activity” (ACS Medicinal Chemistry Letters, 2025)
Like-named read-outs stand apart in the source and are kept apart here.

Key:
PfK1 ABS parasites = format: cell-based, Plasmodium falciparum; details: for IC50: ABS, SYBR Green I, 96 h, mean ± S.E.; for RI (resistance index): RI = PfK1 IC50/PfNF54 IC50
Description: (§1) The parasites were incubated under drug […]
(§2) incubation, parasite survival was determined by adding equal volumes of parasite suspension (100 µL) and SYBR Green I lysis buffer (0.2% µL/mL of 10 000x SYBR Green I, 20 mM Tris-HCl, pH 7.5, 5 mM EDTA, 0.008% saponin (w/v) and 0.08% Triton x-100). This was incubated for 1 hour at room temperature in the dark. […]

[1] = test system: Chinese hamster ovary (CHO) cell line; assay: MTT cytotoxicity assay; format: cell-based; details: 48 h, read-out: CHO IC50
Description: 1.6.In vitro cytotoxicity assay
A 3-(4,5-dimethylthiazol-2-yl)-2,5-diphenyltetrazoliumbromide (MTT) assay was used to screen the metal complexes against the mammalian Chinese hamster ovarian (CHO) cell line.
A stock solution of each compound (2 mg/mL) in DMSO was prepared and kept at -20 °C until needed. Emetine was used as a reference drug. A starting concentration of 100 µg/mL was used, and serially diluted ten-fold using a complete medium to give the lowest concentration of 0.001 µg/mL (6 dilutions). The plates containing the CHO cells under drug pressure were […]
Plates containing the drug and cell suspension were developed by adding 25 μL of sterile MTT (Thermo Fisher Scientific) (25 µL) to each well, followed by 4 h […]
of incubation at room temperature in the dark. The plates were then centrifuged, and the supernatant was removed via aspiration. Sample absorbance was read at a wavelength of 540 […]
analysis via GraphPad Prism v.4.0 software. The IC50 values were determined for each compound were determined from the dose-response curves. […]

[2] = Single-point microsomal metabolic stability, mouse; format: in vitro ADME; details: for Microsomal metabolic stability (% remaining after 30 min) Mouse: mouse liver microsomes, 1 µM
Description: (§3) 1.8. Microsomal metabolic stability studies […]
(§4) rat IGS, Xenotech), and mouse (male mouse CD1, Xenotech) liver microsomes (0.4 mg/ml) for 30 min at 37 °C. Reactions were quenched by adding ice-cold acetonitrile containing […]
(§5) disappearance of the parent compound. Half-life, clearance, and hepatic excretion ratios were determined using standard equations.6,7 Propranolol. […]

[3] = Single-point microsomal metabolic stability, human; format: in vitro ADME; details: human liver microsomes; for Microsomal metabolic stability (% remaining after 30 min) Human: 1 µM
Description: as §3, §4, §5

[4] = Kinetic solubility by HPLC (pH 6.5); details: for Aqueous solubility pH 6.5: kinetic, HPLC
Description: 1.7. Kinetic solubility by HPLC (pH 6.5)
Solubility was measured at pH 6.5 using an adapted miniaturized shake-flask method, in 96-well plate format.4,5 Briefly, 4 µL of a 10 mM stock in DMSO was added to a 96-well plate and evaporated using a GeneVac system. Phosphate buffer pH 6.5 was then added to the wells […]
At the end of this incubation, the […]
in the analysis plate. Analysis was then performed by HPLC-DAD and the solubility of each sample was determined from the corresponding calibration curve. […]

ABS parasites = assay: Dual point activity against ABS parasites; format: cell-based, Plasmodium falciparum; details: single biological repeat
Excerpt: Table S2: Dual point activity of platinum(II) complexes against ABS parasites, early- and late-
stage gametocytes. Values are averaged from technical triplicates performed for a single

[5] = test system: early-stage gametocytes (NF54-PfS16-GFP-Luc); assay: Luciferase reporter assay, early-stage gametocytes; format: cell-based, Plasmodium falciparum; details: for EG (% inhibition) 1 µM / EG (% inhibition) 5 µM: single biological repeat; for IC50: early (II/III) gametocytes, luciferase, 48 h, read-out: EG IC50
Description: (§6) All the complexes were tested for their early- and late-stage gametocyte activity in a dual-point assay (1 μM and 5 μM). […]
(§7) 1.5.In vitro activity against gametocyte stages
(§8) PfNF54 gametocytes were prepared and isolated according to the method reported by Reader […]
(§9) The in vitro gametocyte activity of the synthesized complexes was determined using a luciferase reporter line-based assay.
(§10) NF54-PfS16-GFP-Luc parasites were used for the stage-specific assessment of gametocytocidal activity. Early-stage gametocyte (stage I-III) experiments were performed on day 5 (representing >90% of early-stage and late-stage gametocyte (stages IV/V) experiments were performed on day 10. In each experiment, assays were set up with the use of 2-3% […]
(§11) Luciferase activity was determined in 30 µL parasite lysates by adding luciferin substrate (30 µL) (Promega Luciferase Assay System) at room temperature. […]

[6] = test system: late-stage gametocytes (NF54-PfS16-GFP-Luc); assay: Luciferase reporter assay, late-stage gametocytes; format: cell-based, Plasmodium falciparum; details: for LG (% inhibition) 1 µM / LG (% inhibition) 5 µM: single biological repeat; for IC50: late (IV/V) gametocytes, luciferase, 48 h, read-out: LG IC50
Description: as §6, §7, §8, §9, §10, §11

Cyclic voltammetry = format: physicochemical; details: for Epa1: anodic peak potential; for Epa1 / Epc1: 0.1 V/s; for Epc1: cathodic peak potential; for Epc2: second nonreversible reduction
Excerpt: It is known that Fe^2+/Fe^3+ redox chemistry has an important role in the bioactivity of ferrocene derivatives.[33] The production of reactive oxygen species (ROS) is one of the modes of action of ferroquine and other ferrocene derivatives[34] and is linked to the correlation between their bioactivity and electrochemical behavior. We determined whether a similar correlation could be made for the mixed-ligand platinum(II) complexes reported herein given that metal centers have the potential to be oxidized and reduced. The electrochemistry of the complexes was studied using cyclic voltammetry (CV), which uses a triangular potential waveform. The CV experiments were performed in either dry MeOH or DMF containing tetrabutylammonium chloride (TBACl) as the supporting electrolyte. The working electrode was glassy carbon with a platinum wire as the counter electrode and Ag/AgCl as the reference. The anodic (Epa) and cathodic (Epc) peak potentials at 0.1 V/s and half-wave potentials (E1/2) were measured (Table 3). All of the tested complexes undergo reversible one-electron Pt^2+/Pt^+ reductions (Figures S38–S46). Complexes C2, C4, and C8 undergo a second nonreversible reduction (Epc2), which is most likely ligand-based and linked to reductions of the substituent on the bpy. Looking at SAR2, the more electron-withdrawing the substituent, the […] the E1/2 (V vs Fe/Fe^+) value was. This trend was expected, as a more electron-withdrawing substituent reduces the electron density around the metal center, making it easier for the metal to be reduced from Pt^2+ to Pt^+. […] This is also the case for other bpy-containing platinum(II) complexes that only undergo reductions.[35],[36] […]
For the cyclic voltammetry experiments a solution of the test compound (1 x 10-3) in DMSO (3 mL) is added to the electrolyte solution (0.1 M tetrabutylammonium chloride (TBACl) in DMSO). The electrochemical measurements were obtained using a Basi Epsilon Eclipse Electrochemical Analyzer Potentiostat and the CV graphs were generated using Excel. The working electrode was glassy carbon (GC) with platinum wire as the counter electrode (CE) and Ag/AgCl as the reference. […]

PfNF54 ABS parasites = assay: SYBR Green I-based proliferative assay, PfNF54 ABS parasites; format: cell-based, Plasmodium falciparum; details: ABS, SYBR Green I, 96 h; mean ± S.E., N = 3 (no S.E.: N = 1)
Description: as §1, §2

PfNF54 = assay: 72 h pLDH assay, PfNF54 (precursor compounds); format: cell-based, Plasmodium falciparum; details: for inhibition of Pf proliferation: maximum concentration of 5 μM, PfNF54; for IC50: read-out: PfNF54 IC50
Description: Lastly, the pharmacological effect of substitution with a methyl group at different positions on the bpy ring was determined (SAR4). Changing from the 4,4′-positions (C2) to the 5,5′-positions (C14) improved the PfNF54 activity by 5-fold, whereas changing to the 6,6′-positions (C15) decreased the activity by 2-fold.

PfK1 = details: cited from earlier work
Pf3D7 strain = details: cited from earlier work
[7] = half-wave potential corrected to ferrocene

Compound	IC50 (PfK1 ABS parasites)	IC50 ([1]; cytotoxicity, MTT, N, n = 1, 3)	Microsomal metabolic stability (% remaining after 30 min) Mouse [2]	Microsomal metabolic stability (% remaining after 30 min) Human [3]	ABS (% inhibition) 1 µM (ABS parasites)	ABS (% inhibition) 5 µM (ABS parasites)	EG (% inhibition) 1 µM [5]	EG (% inhibition) 5 µM [5]	IC50 [5]	LG (% inhibition) 1 µM [6]	LG (% inhibition) 5 µM [6]	IC50 [6]	Epa1 (Cyclic voltammetry)	Epc1 (Cyclic voltammetry)	IC50 (PfNF54 ABS parasites)	further results
Cc1cc[n+]2c(c1)-c1cc(C)cc[n+]1[Pt-2]21[O+]=C(c2ccccc2)N=C(N(CCO)CCO)[S]1.[Cl-] [C2]	0.541 ± 0.044 µM	> 50 µM	72 % remaining	70 % remaining	70.9 % inhibition	104.0 % inhibition	19.9 % inhibition	7.9 % inhibition	> 20 µM	11.3 % inhibition	25.5 % inhibition	> 20 µM	–1.074 V	–1.016 V	1.42 ± 0.276 µM	RI (resistance index) (PfK1 ABS parasites): 0.4; Aqueous solubility pH 6.5 [4]: 170 μM; E1/2 (Cyclic voltammetry; half-wave potential): –1.045 V vs Ag/Ag^+; E1/2 (Cyclic voltammetry; [7]): –1.585 V vs Fe/Fe^+; Epc2 (Cyclic voltammetry): –1.084 V vs Ag/Ag^+
OCCN(CCO)C1=NC(c2ccccc2)=[O+][Pt-2]2([S]1)[n+]1ccccc1-c1cccc[n+]12.[Cl-] [C3]	0.184 ± 0.022 µM	> 50 µM	75 % remaining	72 % remaining	68.7 % inhibition	103.1 % inhibition	26.9 % inhibition	0.0 % inhibition	> 20 µM	14.8 % inhibition	39.8 % inhibition	> 20 µM	–1.210 V	–1.014 V	0.142 ± 0.012 µM	–
COc1cc[n+]2c(c1)-c1cc(OC)cc[n+]1[Pt-2]21[O+]=C(c2ccccc2)N=C(N(CCO)CCO)[S]1.[Cl-] [C4]	0.164 ± 0.007 µM	> 50 µM	88 % remaining	63 % remaining	67.1 % inhibition	99.8 % inhibition	6.8 % inhibition	9.1 % inhibition	> 20 µM	14.8 % inhibition	54.4 % inhibition	> 20 µM	–1.136 V	–1.064 V	0.266 ± 0.029 µM	RI (resistance index) (PfK1 ABS parasites): 0.6; Aqueous solubility pH 6.5 [4]: 195 μM; E1/2 (Cyclic voltammetry; half-wave potential): –1.100 V vs Ag/Ag^+; E1/2 (Cyclic voltammetry; [7]): –1.640 V vs Fe/Fe^+; Epc2 (Cyclic voltammetry): –1.515 V vs Ag/Ag^+
[Cl][Pt-2]([Cl])([Cl])[Cl].[K+].[K+] [K2PtCl4, potassium tetrachloroplatinate]	–	> 50 µM	–	–	–	–	–	–	–	–	–	–	–	–	–	inhibition of Pf proliferation (PfNF54): did not inhibit Pf proliferation; IC50 (PfNF54; precursor compounds, 72 h pLDH assay): > 5 µM
CS(=O)(=O)c1ccc(-c2cnc(N)c(-c3ccc(C(F)(F)F)nc3)c2)cc1 [MMV390048, reference compound]	–	–	–	–	–	–	–	–	–	–	–	–	–	–	–	remaining at 0.5 h, 1 µM ([2]; male, CD1, mouse liver microsomes, 30 min, read-out: Microsomal metabolic stability (% remaining after 30 min) Mouse): > 95%; remaining at 0.5 h, 1 µM ([3]; both sexes, 30 min, read-out: Microsomal metabolic stability (% remaining after 30 min) Human): > 95%; solubility at 24 h ([4]; phosphate buffer, 25 °C, pH 6.5, aqueous buffer, thermodynamic from solid): < 5 µM
O=C(NC(=S)N(CCO)CCO)c1ccccc1 [compound 2]	–	–	–	–	–	–	–	–	–	–	–	–	–	–	–	IC50 ([1]; Cricetulus griseus, CHO): > 50 µM; IC50 (PfNF54; Plasmodium falciparum, 72 h): > 5 µM; inhibition of Pf proliferation (PfNF54): did not inhibit Pf proliferation
ferroquine [FQ]	–	–	–	–	–	–	–	–	–	–	–	–	–	–	–	fold increase in activity compared to CQ (PfK1): 25 fold; fold increase in activity compared to CQ (Pf3D7 strain): 1.7 fold
